Source: patent US20230172933A1, “USE OF A COMPOUND OR COMPOSITION COMPRISING AN INHIBITOR OF NLRP1 INFLAMMASOME ACTIVATION FOR THE TREATMENT OF HUMAN AIRWAY INFLAMMATION” (Nanyang Technological University, priority 2020, published 2023)
Entries after “also recorded” stand apart in the source; their conditions may differ. Peptide text beside a SMILES is read from it. * marks the point of attachment. Cbz = O=C(OCc1ccccc1)*

Experiments:
[1] = system: NLRP1 inflammasome in HRV16-infected NHBEs; test: HRV16-induced IL-1β and IL-18 secretion in NHBEs (ELISA); type: cell-based, human; conditions: HRV16 MOI=5, 33° C., 48 hours, pre-treated: MLN4924 1 μM, Bortezomib 1 μM, MCC950 5 μM, Rupintrivir 10 nM
Procedure: (§1) (A) Expression levels of NLRP1 vs. NLRP3 (RNAseq FKPM) in NHBEs. n=21, independent cultures of pooled NHBEs from healthy donors. (B) Expression of NLRP1 vs. NLRP3 in healthy human nasal biopsy. Puncta: positive staining by RNAscope. Nuclei staining: hematoxylin. (C) Overview of cytokine profiling of by HRV16-infected and Talabostat-treated NHBEs. (D) Cells were inoculated with HRV16 at MOI=5 and cultured at 33° C. for 48 hours. Luminex array was performed on conditioned media after removing cell debris. n=3 independent infections and treatment. Cytokines/chemokines that were induced at least 5 fold (p<0.05, Student's t test, lognormal values) are represented by square boxes. […] NHBEs were pretreated with MCC950 (5 μM) or Rupintrivir (10 nM) before HRV16 inoculation or Talabostat (2 μM) treatment. […] (G) Overview of apical HRV infection 3D human bronchial epithelial cultures. (H) Alcian blue (AB)/periodic acid-Schiff (PAS) staining of HRV16-infected (MOI=3) and Talabostat (2 μM)-treated 3D human bronchial epithelial cultures. (1) IL-18 level in apical or basal media 48 hours post-infection or Talabostat treatment. **P<0.01, ***P<0.001, ****P<0.0001 (Two-way ANOVA). n=3 independent infected/treated cultures. (J) Secretion of cleaved IL-1β and IL-18 and ASC oligomerization in HRV16-infected primary NHBEs. Cells were inoculated with HRV16 (MOI=5) or treated with Talabostat (2 μM) for 48 hours at 33° C.
(A) Endogenous NLRP1, ASC and caspase-1 are indispensable for HRV16-induced IL-18 secretion in NHBEs. Cas9-control, NLRP1, ASC and CASP1 KO NHBEs were infected with HRV16 as before. Conditioned media were harvested 48 hours post-infection. (B) NLRP1 is genetically required for HRV16-induced IL-18 cleavage and ASC oligomerization. Cas9 control, NLRP1 and ASC KO NHBEs were infected with HRV16 as before. Cleaved IL-18 are marked with arrows. (C) Mutating the NLRP1 cleavage site abrogates HRV16-triggered IL-18 secretion in NHBEs. NLRP1 KO NHBEs were rescued with lentiviral constructs expressing FLAG-tagged NLRP1^WT or NLRP1^Q130A, which carried silent mutations at the PAM sites. The rescued cells were infected with HRV16 or treated with Talabostat. Conditioned media was analyzed by IL-18 ELISA. **P<0.01, ***P<0.001, n=3 replicates from one of two independent infections. (D) Q130A abrogates NLRP1 cleavage, IL-18 maturation and ASC oligomerization in NHBEs. NLRP1 KO or NLRP1^WT- or NLRP1^Q130A-rescued cells were infected with HRV16 or treated with Talabostat. Cells were harvested 48 hours post infection. Arrow: NLRP1 cleavage product in lane 8 HRV16. *: Non-specific NLRP1 degradation product that occurs right below the a.a. 131-1213 cleavage fragment. See also FIG. 3E, 5E, 5D. (E) MLN4924 and Bortezomib blocks HRV16-induced IL-18 secretion. NHBEs were pre-treated with MLN4924 (1 μM) or Bortezomib (1 μM) before HRV16 infection or Talabostat treatment. IL-18 levels were measured with ELISA. ****, p<0.0001 (Two-way ANOVA), n=3 independent infections/treatment. (F) MLN4924 and Bortezomib blocks HRV16-induced IL-1β secretion. […] Lysates from HRV16-infected NHBEs in FIGS. 9E-F were analyzed by Western blot 48 hours post HRV16 inoculation.
(§2) The following antibodies were used in this study: c-Myc (Santa Cruz Biotechnology #sc-40), HA tag (Santa Cruz Biotechnology, #sc-805), GAPDH (Santa Cruz Biotechnology, #sc-47724), ASC (Adipogen, #AL-177), CASP1 (Santa Cruz Biotechnology, #sc-622), IL1B (R&D systems, #AF-201), FLAG (SigmaAldrich, #F3165), GFP (Abcam, #ab290), NLRP1 (R&D systems, #AF6788), IL18 (Abcam ab207324) and VP2 (QED Bioscience, #18758). HRV16-3Cpro was detected by rabbit serum, a kind gift from Dr. Ann Palmenberg and Dr. James Gern (University of Wisconsin). Cytokine and chemokine measurements were carried out with human IL-1B ELISA kit (BD, #557953), human IL-18 ELISA kit (MBL Bioscience, #7620) and Immune Monitoring 65-Plex Human ProcartaPlex™ Panel (ThermoFisher EPX650-10065-901). […]

NLRP1 = NLRP1 self-oligomerization (BN-PAGE) and cleavage fragment (SDS-PAGE/Western blot) in 293T-NLRP1-FLAG cells transfected with HRV14-3Cpro; type: cell-based, human; conditions: for stabilization of the post-cleavage NLRP1 fragment (a.a. 131-1213): 293T-NLRP1-FLAG cells transfected with HRV14-3Cpro, Western blot; for HRV14-3Cpro-induced NLRP1 self-oligomerization: 293T-NLRP1-FLAG cells, BN-PAGE, drugs for 24 hours, MG132 2.5 μM
[2] = system: endogenous NLRP1 inflammasome; test: Endogenous NLRP1 inflammasome in doxycycline-induced Tet-ON HRV14-3Cpro N/TERT keratinocytes; type: cell-based, human; conditions: doxycycline 24 hours; for mature IL-1β secretion upon HRV14-3Cpro induction: Western blot, ELISA
human NLRP1 inflammasome = test: HRV14-3Cpro-induced ASC-GFP speck formation in 293T-ASC-GFP-NLRP1-FLAG reporter cells; type: cell-based; conditions: 293T-ASC-GFP-NLRP1-FLAG cells transfected with HRV14-3Cpro; MLN4924 1 μM, MG132 2.5 μM, Bortezomib 0.5 μM, phenylalanine 1 mM; 24 hours
[3] = system: NLRP1 inflammasome in Talabostat-treated NHBEs; test: Talabostat-induced IL-1β and IL-18 secretion in NHBEs (ELISA); type: cell-based, human; conditions: Talabostat 2 μM, pre-treated: MLN4924 1 μM, MCC950 5 μM, Rupintrivir 10 nM
Procedure: as §1
(A) Endogenous NLRP1, ASC and caspase-1 are indispensable for HRV16-induced IL-18 secretion in NHBEs. Cas9-control, NLRP1, ASC and CASP1 KO NHBEs were infected with HRV16 as before. Conditioned media were harvested 48 hours post-infection. (B) NLRP1 is genetically required for HRV16-induced IL-18 cleavage and ASC oligomerization. Cas9 control, NLRP1 and ASC KO NHBEs were infected with HRV16 as before. Cleaved IL-18 are marked with arrows. […] Conditioned media was analyzed by IL-18 ELISA. **P<0.01, ***P<0.001, n=3 replicates from one of two independent infections. […] IL-18 levels were measured with ELISA. ****, p<0.0001 (Two-way ANOVA), n=3 independent infections/treatment. […] Lysates from HRV16-infected NHBEs in FIGS. 9E-F were analyzed by Western blot 48 hours post HRV16 inoculation.
as §2, with “Wisconsin).” for “Wisconsin). Cytokine and chemokine measurements were carried out with human IL-1B ELISA kit (BD, #557953), human IL-18 ELISA kit (MBL Bioscience, #7620) and Immune Monitoring 65-Plex Human ProcartaPlex™ Panel (ThermoFisher EPX650-10065-901).”

[4] = system: NLRP1 cleavage by HRV16 3Cpro; test: NLRP1 cleavage in HRV16-infected HeLa-Ohio-NLRP1-HA cells; type: cell-based, human; conditions: HRV16 MOI=1
Procedure: (A) HRV16 infection causes NLRP1 cleavage in HeLa-Ohio-NLRP1-HA cells. MOI=1. (B) Q130A abrogates HRV16-induced NLRP1 cleavage and ASC-GFP oligomerization. HeLa-Ohio-ASC-GFP-NLRP1WT or NLRP1^Q130A cells were infected with HRV16 at MOI=1 at 33° C. Cell pellets were harvested 48 hours post infection. (C) The effect of HRV16 infection on ASC-GFP speck formation in HeLa-Ohio-ASC-GFP cells expressing wild-type NLRP1 or NLRP1^Q130A. ***P<0.001 (Two-way ANOVA). n=3 replicates from one of two independent infections, >100 cells per condition. (D) Representative images of ASC-GFP specks in HeLa-Ohio-ASC-GFP cells expressing wild-type NLRP1 or NLRP1^Q130A. Arrows: ASC-GFP specks. Note that in this cell line the ASC-GFP specks appear less compact, even in Talabostat-treated positive control cells. […]
The effect of live HRV infection in disease-relevant human epithelial cell types was then examined. In HeLa-Ohio cells overexpressing NLRP1-HA, robust HRV16 viral replication was achieved 16 hours post inoculation (MOI=1) as detected by the accumulation of the viral capsid protein VP2 (FIG. 8A, lanes 4, 5, 10 and 11). […] Using HeLa-Ohio cells that additionally expressed ASC-GFP, we next tested whether HRV16 infection could lead to NLRP1 inflammasome complex assembly. […]

Row | Compound | HRV16-induced IL-1β secretion [1] | HRV16-induced IL-18 secretion [1] | HRV16-induced IL-1β secretion ([1]; listed as bortezomib) | HRV16-induced IL-18 secretion ([1]; listed as bortezomib) | stabilization of the post-cleavage NLRP1 fragment (a.a. 131-1213) (NLRP1) | ASC oligomerization upon HRV14-3Cpro induction [2] | mature IL-1β secretion upon HRV14-3Cpro induction [2] | HRV14-3Cpro-induced ASC-GFP speck formation (human NLRP1 inflammasome) | Talabostat-induced IL-1β secretion [3] | Talabostat-induced IL-18 secretion [3] | HRV14-3Cpro-induced NLRP1 self-oligomerization (NLRP1) | NLRP1 cleavage [4]
1 | CC(C)C[C@H](NC(=O)[C@H](Cc1ccccc1)NC(=O)c1cnccn1)B(O)O [Bortezomib, [(1R)-3-methyl-1-[[(2S)-3-phenyl-2-(pyrazine-2-carbonylamino)propanoyl]amino]butyl]boronic acid] | blocks | blocks | completely blocked | completely blocked | to similar degrees | completely blocked | completely blocked | blocked |  |  |  | 
2 | CC(C)(O)c1coc(S(=O)(=O)NC(=O)Nc2c3c(cc4c2CCC4)CCC3)c1 [MCC950] | neither IL-1β nor IL-18 secretion was affected; also recorded: did not affect | neither IL-1β nor IL-18 secretion was affected |  |  |  |  |  |  | neither IL-1β nor IL-18 secretion was affected | neither IL-1β nor IL-18 secretion was affected |  | 
3 | CC(C)C[C@@H](C=O)NC(=O)[C@H](CC(C)C)NC(=O)[C@H](CC(C)C)NC(=O)OCc1ccccc1 [MG132, benzyl N-[(2S)-4-methyl-1-[[(2S)-4-methyl-1-[[(2S)-4-methyl-1-oxopentan-2-yl]amino]-1-oxopentan-2-yl]amino]-1-oxopentan-2-yl]carbamate] (Cbz-Leu-Leu-Leu-aldehyde) |  |  |  |  | to similar degrees | completely abrogated | completely abrogated | significantly blocked |  |  | significantly blocked | 
4 | CCOC(=O)/C=C/[C@H](C[C@@H]1CCNC1=O)NC(=O)[C@@H](CC(=O)[C@@H](NC(=O)c1cc(C)on1)C(C)C)Cc1ccc(F)cc1 [Rupintrivir] | completely abrogated | completely abrogated |  |  |  |  |  |  |  |  |  | completely abrogated
5 | N[C@@H](Cc1ccccc1)C(=O)O [phenylalanine] |  |  |  |  |  |  |  | had no effect |  |  | had no effect | 
